Biological target: T1, yCPT1 (cholinephosphotransferase) (Saccharomyces cerevisiae, UniProt P17898)
T1 sequence (P17898 1-393): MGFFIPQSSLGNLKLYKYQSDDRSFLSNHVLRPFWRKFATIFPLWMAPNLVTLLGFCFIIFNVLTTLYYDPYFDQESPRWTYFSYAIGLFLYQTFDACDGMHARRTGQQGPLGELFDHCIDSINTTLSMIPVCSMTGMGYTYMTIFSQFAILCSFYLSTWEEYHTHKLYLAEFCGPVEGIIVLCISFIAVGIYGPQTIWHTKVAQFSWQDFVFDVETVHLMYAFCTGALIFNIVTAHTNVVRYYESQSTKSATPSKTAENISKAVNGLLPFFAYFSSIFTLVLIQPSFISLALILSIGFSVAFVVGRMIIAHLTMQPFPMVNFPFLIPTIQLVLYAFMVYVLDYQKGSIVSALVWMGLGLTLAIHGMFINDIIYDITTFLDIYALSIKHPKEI
Assay: cryo-EM structure
Type: biochemical

COc1ccc2c(c[n+](C)c3c4cc5c(cc4ccc23)OCO5)c1OC [chelerythrine]
IC50: 443 nM
